Measured values: article PMC4818757, “Small molecule inhibitors of the Dishevelled‐CXXC5 interaction are new drug candidates for bone anabolic osteoporosis therapy” (EMBO Molecular Medicine, 2016)

Tests used:
TA-98 = conditions: TA-98, Without S-9 mix
Source text: (§1) Appendix Table S3. Bacterial reverse mutation assay with KY-02327
(§2) a Number of revertant colonies of treated plate/Number of revertant colonies of
(§3) vehicle control plate (Maron & Ames, 1983).
(§4) b Negative control. Vehicle: DMSO

TA-100 = conditions: TA-100, Without S-9 mix
Source text: as §1, §2, §3, §4

[1] = target: CYP C29 (so in the source); probably CYP2C9) (Homo sapiens, UniProt P11712); experiment: Cytochrome P450 inhibition assay, C29
Source text: Appendix Table S4. Cytochrome P450 (CYP) inhibition assay with 10 µ M KY-

[2] = system: ovariectomized (OVX) mice; experiment: OVX-induced osteoporosis mouse model; type: in vivo; conditions: KY‐02327 20 mpk oral, PTH 0.06 mpk subcutaneous
Procedure: Figure 6 Effects of KY‐02327 on OVX‐induced osteoporosis model mice • A–H Vehicle or 20 mg of KY‐02327 per kg of animal body weight (mpk) was orally administered or 0.06 mpk of the N‐terminal fragment of PTH (amino acids 1‐34) was subcutaneously injected into the Sham‐operated (Sham) or ovariectomized (OVX) mice on 5 sequential days per week for 4 weeks (n = 4). After calcein injection, the prepared femoral sections of the OVX mice were examined under fluorescence microscope to visualize integrated calcein (A, green, arrows). Nuclei were counterstained with DAPI (A, blue). Scale bars, 100 μm. Osteoblast numbers (B) and calcein double‐labeled surfaces (C) were measured in the femoral sections. The mouse femurs were analyzed using micro‐CT, and BMD (D) and BV/TV (E) were calculated from the micro‐CT data. The three‐dimensional images of femoral trabecular bone were reconstructed (F), and trabecular number (G) and trabecular separation (H) were calculated. Data Information: The data are the mean ± s.d. (error bars). Significance was assessed using Kruskal–Wallis test.
This animal study was approved by the Institutional Review Board of Severance Hospital, Yonsei University College of Medicine. The mice were housed in filter‐topped shoebox cages with a computerized environmental control system (MJ LTD, Seoul, Korea). The care and treatment of experimental animals were performed in accordance with institutional guidelines. The room temperature was maintained at 26.5°C with a relative humidity of approximately 40–70%. The mice were given a standard maintenance diet from Dae Han Bio Link (Daejeon, Korea). For OVX mouse experiments, the surgeries were performed with 8‐week‐old female BL6 mice under anesthesia with avertin (2,2,2‐tribromoethanol; Worthington Biochemical, Freehold, NJ) as described previously (Zahoor et al, 2014). After removing the hair, dorsal incisions were made into the dermal layers above both sides of the ovaries using dissection scissors. The connection between the fallopian tube and the uterine horn was cut, and the ovary was removed. The incision was then sutured with 3 single catgut stitches. Sham mice were used as controls. After 4 weeks, the OVX group was divided into three groups for oral administration of vehicle (saline containing 10% Tween‐60) or 20 mg of KY‐02327 per kg of animal body weight (mpk) of KY‐02327, or for subcutaneous injection of 0.06 mpk of N‐terminal fragment of PTH (amino acids 1–34), which were administered for 5 sequential days per week for 4 weeks. The animals were sacrificed, and the organs were harvested for analysis. For the calcein double‐labeling experiment (Pall et al, 1987), calcein (10 mpk in 2% sodium hydrocarbonate, pH 7.4) was injected twice, on the last day of the 2nd and 3rd week. All the mice were randomly assigned to each groups, and the investigators were blinded to the group allocation during the treatments and experiments.
The mouse femurs were scanned using a micro‐CT system (Skyscan 1072; Skyscan, Aartselaar, Belgium). The scanned image data were reconstructed to create 3D images and analyzed using the CT‐Analyzing Program (Skyscan). For femoral trabecular bone analysis, the femurs were scanned with a voxel size of 10 μm, beginning at the end of the growth plate and extending proximally along the diaphysis, and 80 continuous slices (beginning at 0.1 mm from the most proximal aspect of the growth plate in which both condyles were no longer visible) were selected for analysis.
The femurs of OVX mice and the calvariae of 4‐day‐old mice were fixed in 4% paraformaldehyde in PBS. The bones were then decalcified in 10 mM EDTA and embedded in paraffin. Five‐micrometer tissue sections were deparaffinized in 100% xylene followed by re‐hydration with sequential 100% to 50% ethanol washes. The sections were stained with hematoxylin and eosin (H&E), and light micrographs were captured using a SMZ645 Nikon microscope (Nikon, Tokyo, Japan). […]

CYP C29 (so in the source); probably CYP2C9), sequence (P11712 whole entry): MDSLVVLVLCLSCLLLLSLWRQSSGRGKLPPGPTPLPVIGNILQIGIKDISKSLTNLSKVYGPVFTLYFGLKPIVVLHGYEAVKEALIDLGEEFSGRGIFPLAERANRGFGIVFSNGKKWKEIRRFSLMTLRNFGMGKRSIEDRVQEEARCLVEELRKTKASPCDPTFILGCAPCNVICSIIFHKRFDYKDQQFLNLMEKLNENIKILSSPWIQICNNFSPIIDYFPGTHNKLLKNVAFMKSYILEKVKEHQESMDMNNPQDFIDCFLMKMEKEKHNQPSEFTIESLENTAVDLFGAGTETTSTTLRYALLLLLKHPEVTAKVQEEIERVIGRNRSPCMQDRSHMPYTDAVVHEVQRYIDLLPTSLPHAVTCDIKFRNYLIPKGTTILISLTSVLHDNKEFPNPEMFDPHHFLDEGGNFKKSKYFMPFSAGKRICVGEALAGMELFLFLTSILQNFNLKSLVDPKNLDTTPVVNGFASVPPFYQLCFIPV

For O=[N+]([O-])c1ccc2c(c1)Cc1ccccc1-2 [2-NF, 2-nitrofluorene, reference compound], the “Factor (revertant colonies treated plate / vehicle control plate)” value (TA-98) was 9.4 and the “Revertant colonies/plate (Mean)” value (TA-98; dose (g/plate): KY-02327 1000, 2-NF 1) was 178 ± 16 colonies/plate.

In the case of [N-]=[N+]=[N-].[Na+] [S.A, Sodium azide, reference compound], the “Factor (revertant colonies treated plate / vehicle control plate)” value (TA-100) is reported as 5.6 and the “Revertant colonies/plate (Mean)” value (TA-100; dose (g/plate): KY-02327 1000, S.A 1) is reported as 689 ± 20 colonies/plate.

In the case of Nc1ccc(S(=O)(=O)Nc2ccnn2-c2ccccc2)cc1 [Sulfaphenazole, reference compound], the inhibition at 10 µM [1] is reported as 80.5%.

In the case of “PTH: N‐terminal fragment of PTH (amino acids 1‐34) [reference compound]”, the “destroyed trabecular bones (3D micro-CT images)” value ([2]; 4 weeks) is reported as “rescued”, the “mineral contents of the bone (BMD), femur, micro‐CT” value ([2]; 4 weeks) is reported as “significantly increased” and the trabecular bone number ([2]; 4 weeks) is reported as “increase”. For the same molecule, the trabecular separation ([2]; 4 weeks) was “decrease”, the “volume of bone (BV/TV)” value ([2]; 4 weeks, vs vehicle) was “increased” and the “calcein double‐labeled surface” value ([2]; 5 days per week for 4 weeks) was “increased”. The “new bone formation (calcein-labeled) in femur” value ([2]; 5 days per week for 4 weeks) was “recovered” and the number of osteoblasts ([2]; 5 days per week for 4 weeks) was “increased”.
